Literature values as cited in article PMC7887855 (ACS Pharmacology & Translational Science, 2020).

System: Mtb
Conditions: multiple daily IP injections, mice

Structure (SMILES): C=Cc1c2[n-]c(c1C)/C=c1\[n-]/c(c(C)c1C=C)=C\c1[n-]c(c(CCC(=O)O)c1C)C=c1[n-]/c(c(C)c1CCC(=O)O)=C\2.[Sn+4] [SnPPIX, tin protoporphyrin IX]
- effect on mycobacterial load as monotherapy: significantly decrease mycobacterial load
- effect on treatment time in combination with conventional TB antibiotics: reduced treatment time by over one month
